Measurements as given in paper PMC8523698, “Preclinical characterization of an intravenous coronavirus 3CL protease inhibitor for the potential treatment of COVID19” (Nature Communications, 2021).
Where “and” joins values, the source holds several entries; their conditions need not be identical. Equal values may be shown once.

Legend:
CYP2D6 = CYP2D6 (Homo sapiens, UniProt P10635); assay: Reversible CYP inhibition in human liver microsomes; settings: human, microsomes, pH 7.4, Percent of Control Activity; for activity at 4.48 µM: CYP 2D6, 4.48 µM; for activity at 20.5 µM: CYP 2D6, 20.5 µM; for activity at 43.8 µM: CYP 2D6, 43.8 µM; for activity at 93.5 µM: CYP 2D6, 93.5 µM; for activity at 200 µM: CYP 2D6, 200 µM
CYP3A4/5 = assay: as above; settings: for IC50: at approximately KM

CYP2D6, sequence (P10635 whole entry): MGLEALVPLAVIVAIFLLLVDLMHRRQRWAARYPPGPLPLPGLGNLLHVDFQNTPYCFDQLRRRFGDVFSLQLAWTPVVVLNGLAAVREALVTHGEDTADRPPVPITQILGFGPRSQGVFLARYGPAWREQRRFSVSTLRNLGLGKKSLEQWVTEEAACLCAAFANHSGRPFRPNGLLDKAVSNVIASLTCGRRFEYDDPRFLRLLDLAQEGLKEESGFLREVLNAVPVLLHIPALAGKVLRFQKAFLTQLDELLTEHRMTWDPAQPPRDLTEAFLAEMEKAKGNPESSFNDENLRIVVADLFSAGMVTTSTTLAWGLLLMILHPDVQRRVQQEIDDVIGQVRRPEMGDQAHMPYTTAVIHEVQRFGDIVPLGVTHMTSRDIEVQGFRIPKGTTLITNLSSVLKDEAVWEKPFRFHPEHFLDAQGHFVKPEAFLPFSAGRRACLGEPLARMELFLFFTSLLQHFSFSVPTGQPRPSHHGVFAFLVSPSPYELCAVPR

## COc1cccc2[nH]c(C(=O)N[C@@H](CC(C)C)C(=O)N[C@@H](C[C@@H]3CCNC3=O)C(=O)CO)cc12 [PF-00835231]
CYP2D6; CYP 2D6, 2.09 µM, Zero-Minute Preincubation
  activity at 2.09 µM: 99.9%
CYP2D6; 30-Minute Preincubation
  activity at 4.48 µM: 109%
  activity at 20.5 µM: 118%
  activity at 43.8 µM: 119%
  activity at 93.5 µM: 120%
  activity at 200 µM: 95.7%
CYP2D6; Zero-Minute Preincubation
  activity at 4.48 µM: 97.2%
  activity at 20.5 µM: 97.6%
  activity at 43.8 µM: 101%
  activity at 93.5 µM: 91.9%
  activity at 200 µM: 78.8%
CYP3A4/5; CYP 3A4/5 (mdz), 0.214 µM, 30-Minute Preincubation
  Percent of Control Activity: 105.3%
CYP3A4/5; CYP 3A4/5 (mdz), 0.979 µM, 30-Minute Preincubation
  Percent of Control Activity: 106.9%
CYP3A4/5; CYP 3A4/5 (mdz), 2.09 µM, 30-Minute Preincubation
  Percent of Control Activity: 110.4%
CYP3A4/5; CYP 3A4/5 (mdz), 4.48 µM, 30-Minute Preincubation
  Percent of Control Activity: 94.3%
CYP3A4/5; CYP 3A4/5 (mdz), 20.5 µM, 30-Minute Preincubation
  Percent of Control Activity: 83.5%
CYP3A4/5; CYP 3A4/5 (mdz), 20.5 µM, Zero-Minute Preincubation
  Percent of Control Activity: 117.3%
CYP3A4/5; CYP 3A4/5 (mdz), 43.8 µM, 30-Minute Preincubation
  Percent of Control Activity: 84.8%
CYP3A4/5; CYP 3A4/5 (mdz), 93.5 µM, 30-Minute Preincubation
  Percent of Control Activity: 72.6%
CYP3A4/5; CYP 3A4/5 (mdz), 200 µM, 30-Minute Preincubation
  Percent of Control Activity: 50.6% and 46.7%
CYP3A4/5; CYP 3A4/5 (mdz), 200 µM, Zero-Minute Preincubation
  Percent of Control Activity: 109.5%
CYP3A4/5; CYP 3A4/5 (tst), 0.214 µM, 30-Minute Preincubation
  Percent of Control Activity: 110.1%
CYP3A4/5; CYP 3A4/5 (tst), 0.214 µM, Zero-Minute Preincubation
  Percent of Control Activity: 116.0% and 141.9%
CYP3A4/5; CYP 3A4/5 (tst), 0.979 µM, 30-Minute Preincubation
  Percent of Control Activity: 122.3%
CYP3A4/5; CYP 3A4/5 (tst), 0.979 µM, Zero-Minute Preincubation
  Percent of Control Activity: 120.0% and 100.0%
CYP3A4/5; CYP 3A4/5 (tst), 2.09 µM, 30-Minute Preincubation
  Percent of Control Activity: 146.9% and 144.6% and 107.9%
CYP3A4/5; CYP 3A4/5 (tst), 2.09 µM, Zero-Minute Preincubation
  Percent of Control Activity: 128.1%
CYP3A4/5; CYP 3A4/5 (tst), 4.48 µM, 30-Minute Preincubation
  Percent of Control Activity: 142.0% and 164.4%
CYP3A4/5; CYP 3A4/5 (tst), 4.48 µM, Zero-Minute Preincubation
  Percent of Control Activity: 92.4% and 117.7% and 97.0%
CYP3A4/5; CYP 3A4/5 (tst), 20.5 µM, 30-Minute Preincubation
  Percent of Control Activity: 84.0%
CYP3A4/5; CYP 3A4/5 (tst), 20.5 µM, Zero-Minute Preincubation
  Percent of Control Activity: 71.0% and 70.3%
CYP3A4/5; CYP 3A4/5 (tst), 43.8 µM, 30-Minute Preincubation
  Percent of Control Activity: 71.6%
CYP3A4/5; CYP 3A4/5 (tst), 43.8 µM, Zero-Minute Preincubation
  Percent of Control Activity: 96.7%
CYP3A4/5; CYP 3A4/5 (tst), 93.5 µM, 30-Minute Preincubation
  Percent of Control Activity: 42.9% and 41.8%
CYP3A4/5; CYP 3A4/5 (tst), 93.5 µM, Zero-Minute Preincubation
  Percent of Control Activity: 60.1%
CYP3A4/5; CYP 3A4/5 (tst), 200 µM, 30-Minute Preincubation
  Percent of Control Activity: 26.6%
CYP3A4/5; CYP 3A4/5 (tst), 200 µM, Zero-Minute Preincubation
  Percent of Control Activity: 39.6% and 35.7%
CYP3A4/5; human, human liver microsomes, pH 7.4, probe midazolam (1′-hydroxylation), IC50, Midazolam 1′-hydroxylation, T0
  IC50: > 200 µM
CYP3A4/5; human, human liver microsomes, pH 7.4, probe midazolam (1′-hydroxylation), IC50, Midazolam 1′-hydroxylation, T30
  IC50: > 200 µM
CYP3A4/5; human, human liver microsomes, pH 7.4, probe midazolam (mdz), Percent of Control Activity, CYP 3A4/5 (mdz), 0.1 µM, 30-Minute Preincubation
  activity at 0.1 µM: 113%
CYP3A4/5; human, human liver microsomes, pH 7.4, probe midazolam (mdz), Percent of Control Activity, CYP 3A4/5 (mdz), 0.214 µM, 30-Minute Preincubation
  activity at 0.214 µM: 111%
CYP3A4/5; human, human liver microsomes, pH 7.4, probe midazolam (mdz), Percent of Control Activity, CYP 3A4/5 (mdz), 0.214 µM, Zero-Minute Preincubation
  activity at 0.214 µM: 107%
CYP3A4/5; human, human liver microsomes, pH 7.4, probe midazolam (mdz), Percent of Control Activity, CYP 3A4/5 (mdz), 0.979 µM, 30-Minute Preincubation
  activity at 0.979 µM: 113%
CYP3A4/5; human, human liver microsomes, pH 7.4, probe midazolam (mdz), Percent of Control Activity, CYP 3A4/5 (mdz), 0.979 µM, Zero-Minute Preincubation
  activity at 0.979 µM: 115%
CYP3A4/5; human, human liver microsomes, pH 7.4, probe midazolam (mdz), Percent of Control Activity, CYP 3A4/5 (mdz), 2.09 µM, 30-Minute Preincubation
  activity at 2.09 µM: 112%
CYP3A4/5; human, human liver microsomes, pH 7.4, probe midazolam (mdz), Percent of Control Activity, CYP 3A4/5 (mdz), 2.09 µM, Zero-Minute Preincubation
  activity at 2.09 µM: 100%
CYP3A4/5; human, human liver microsomes, pH 7.4, probe midazolam (mdz), Percent of Control Activity, CYP 3A4/5 (mdz), 4.48 µM, 30-Minute Preincubation
  activity at 4.48 µM: 106%
CYP3A4/5; human, human liver microsomes, pH 7.4, probe midazolam (mdz), Percent of Control Activity, CYP 3A4/5 (mdz), 43.8 µM, 30-Minute Preincubation
  activity at 43.8 µM: 88.1%
CYP3A4/5; human, human liver microsomes, pH 7.4, probe midazolam (mdz), Percent of Control Activity, CYP 3A4/5 (mdz), 93.5 µM, 30-Minute Preincubation
  activity at 93.5 µM: 72.3%
CYP3A4/5; human, human liver microsomes, pH 7.4, probe midazolam (mdz), Percent of Control Activity, CYP 3A4/5 (mdz), 93.5 µM, Zero-Minute Preincubation
  activity at 93.5 µM: 113%
CYP3A4/5; human, human liver microsomes, pH 7.4, probe midazolam (mdz), Percent of Control Activity, CYP 3A4/5 (mdz), 200 µM, 30-Minute Preincubation
  activity at 200 µM: 54.3%
CYP3A4/5; human, human liver microsomes, pH 7.4, probe midazolam (mdz), Percent of Control Activity, CYP 3A4/5 (mdz), 200 µM, Zero-Minute Preincubation
  activity at 200 µM: 107%
CYP3A4/5; human, human liver microsomes, pH 7.4, probe testosterone (6β-hydroxylation), IC50 (confidence interval), Testosterone 6β-hydroxylation, T0
  IC50: 108 µM
CYP3A4/5; human, human liver microsomes, pH 7.4, probe testosterone (6β-hydroxylation), IC50 (confidence interval), Testosterone 6β-hydroxylation, T30
  IC50: 62.4 µM
CYP3A4/5; human, human liver microsomes, pH 7.4, probe testosterone (tst), Percent of Control Activity, CYP 3A4/5 (tst), 0.1 µM, 30-Minute Preincubation
  activity at 30 min, 0.1 µM: 92.1%
CYP3A4/5; human, human liver microsomes, pH 7.4, probe testosterone (tst), Percent of Control Activity, CYP 3A4/5 (tst), 0.1 µM, Zero-Minute Preincubation
  activity at 0.1 µM: 88.6%
CYP3A4/5; human, human liver microsomes, pH 7.4, probe testosterone (tst), Percent of Control Activity, CYP 3A4/5 (tst), 0.214 µM, 30-Minute Preincubation
  activity at 30 min, 0.214 µM: 115%
CYP3A4/5; human, human liver microsomes, pH 7.4, probe testosterone (tst), Percent of Control Activity, CYP 3A4/5 (tst), 0.979 µM, 30-Minute Preincubation
  activity at 30 min, 0.979 µM: 116%
CYP3A4/5; human, human liver microsomes, pH 7.4, probe testosterone (tst), Percent of Control Activity, CYP 3A4/5 (tst), 0.979 µM, Zero-Minute Preincubation
  activity at 0 min, 0.979 µM: 114%
CYP3A4/5; human, human liver microsomes, pH 7.4, probe testosterone (tst), Percent of Control Activity, CYP 3A4/5 (tst), 2.09 µM, Zero-Minute Preincubation
  activity at 0 min, 2.09 µM: 109%
CYP3A4/5; human, human liver microsomes, pH 7.4, probe testosterone (tst), Percent of Control Activity, CYP 3A4/5 (tst), 43.8 µM, 30-Minute Preincubation
  activity at 43.8 µM: 73.4%
CYP3A4/5; human, human liver microsomes, pH 7.4, probe testosterone (tst), Percent of Control Activity, CYP 3A4/5 (tst), 43.8 µM, Zero-Minute Preincubation
  activity at 43.8 µM: 75.3%
CYP3A4/5; human, human liver microsomes, pH 7.4, probe testosterone (tst), Percent of Control Activity, CYP 3A4/5 (tst), 93.5 µM, 30-Minute Preincubation
  activity at 93.5 µM: 37.7%
CYP3A4/5; human, human liver microsomes, pH 7.4, probe testosterone (tst), Percent of Control Activity, CYP 3A4/5 (tst), 93.5 µM, Zero-Minute Preincubation
  activity at 93.5 µM: 54.9%
CYP3A4/5; human, human liver microsomes, pH 7.4, probe testosterone (tst), Percent of Control Activity, CYP 3A4/5 (tst), 200 µM, 30-Minute Preincubation
  activity at 200 µM: 15.1%
CYP3A4/5; human, human liver microsomes, pH 7.4, probe testosterone (tst), Percent of Control Activity, CYP 3A4/5 (tst), 200 µM, Zero-Minute Preincubation
  activity at 200 µM: 36.4%
